Data set [1] deals with PC-3 cells. The experiment in a line: Clonogenic cell survival with caspase-3 inhibitor, oleandrin and radiation. Format: cell-based, human. Conditions: for Survival of cells (%) following radiation of 2 Gy / Survival of cells (%) following radiation of 6 Gy / Survival of cells (%) following radiation of O Gy: oleandrin 0.05 μg/ml 24 hours, ZDEVD-FMK 100 μM added 2 hours before oleandrin; for Survival of cells (%) following radiation of 2 Gy: control 74.6 ± 3.4; for Survival of cells (%) following radiation of 6 Gy: control 7.8 ± 0.6; for Survival of cells (%) following radiation of O Gy: no radiation, percent control, mean±SE. Here is the method:
PC-3 cells were incubated with 0.05 μg/ml oleandrin for 24 hours before being irradiated with 2 or 6 Gy. […] Clonogenic cell survival was then determined. Colonies were counted and the survival of cells (percent control) was calculated. Data are presented as mean±SE from three experiments.

For data set [2], the system named is PC-3 cells. Briefly: Colony forming ability of PC-3 cells after oleandrin and graded γ-irradiation. The format is cell-based, human. Here is the method: The human prostate carcinoma cell line PC-3 was obtained from the American Type Culture Collection and maintained in RPMI 1640 medium supplemented with 10% fetal calf serum, 10,000 U/ml of penicillin-streptomycin, and 2 mM L-glutamine. Cells were grown as monolayers in 75-cm^2 flasks and maintained in a humidified 5% CO2/95% air atmosphere at 37.8° C.
[…] graded doses (2, 4 or 6 Gy) of γ-rays using a ^137Cs source (3.7 Gy/min) and assayed for colony forming ability by replating them in specified numbers into 100-mm dishes containing drug-free media. After 12 days of incubation, cells were stained with 0.5% crystal violet in absolute ethanol, and colonies with more than 50 cells were counted. The average survival levels were fit by least squares regression using a linear quadratic model. Survival curves were constructed with normalized values for the cytotoxicity induced by oleandrin alone. Oleandrin by itself reduced plating efficiency from the 95% control value to 21%.
The untreated control samples are represented by the open circles and the oleandrin treated samples are represented by the filled circles. Values shown are the means±SE for three independent experiments. The enhancement factor at the cell survival fraction of 0.1 was 1.32.

The next data set deals with human tumor cell lines. As to conditions: cited from earlier work.
Another data set relates to caspase-3. The experiment in a line: Caspase-3 activation by western blotting. Format: cell-based, human. Here is the method:
To determine whether caspase-3 activation was involved in the oleandrin-induced enhancement of PC-3 cell radioresponse, cells were treated with 5 Gy or 0.05 μg/ml oleandrin or a combination of both treatments for 24 hours. Cells were assayed for caspase-3 activation 24 hours after treatment using western blotting. cells were lysed in a buffer containing 50 mM Tris-HCl (pH 8), 450 mM NaCl, 1% triton X-100, 5 mM EDTA, 1% (v/v) of protease inhibitor cocktail, and 1% (v/v) phosphatase inhibitor cocktails I and II (Sigma, St. Louis, Mo.). Protein ([…] per lane) was separated by sodium dodecyl sulfate-polyacrylamide gel electrophoresis (“SDS-PAGE”) and transferred to a polyvinylidene difluoride (“PVDF”) membrane (Bio-Rad Laboratories, Hercules, Calif.). The membrane was blocked by 5% non-fat dry milk in Tris-buffered saline and 0.1% Tween-20 (“TBS-T”) and before incubation with a designated primary antibody (Pharmingen, San Diego, Calif.). After washing the membrane with TBS-T, it was incubated in secondary antibody and the immunoreaction was visualized using an ECL western blotting kit (Amersham Corp., Arlington Heights, Ill.).

The next data set deals with murine tumor cell lines. Conditions: cited from earlier work.
Data set [3] relates to PC-3 cells. The experiment in a line: Effect of duration of oleandrin exposure on radiosensitivity (colony survival, 3 Gy). The format is cell-based, human. Here is the method:
The magnitude of radiosensitization depended on duration of exposure of cells to oleandrin prior to radiation. PC-3 cells were incubated in the presence of 0.05 μg/ml oleandrin for 1-24 hours. After oleandrin treatment, cells were irradiated with 3 Gy radiation and plated as in Example 1. Colonies were counted after 12 days and percent surviving fractions were plotted. […] Cell survival after 3 Gy radiation only was 50% compared to 30% after 3 Gy radiation plus 0.05 μg/ml oleandrin. Values shown are means±SE for three independent experiments. The average survival levels were fit by least squares regression using a linear quadratic model.

Data set [4] concerns PC-3 cells. The experiment in a line: Hoechst 33258 staining of apoptotic cells, fluorescent microscope. The format is cell-based, human. Conditions: oleandrin plus radiation versus any other treated or control population. The text has this:
In addition, the control cells and the experimental cells were stained with a fluorescent dye, Hoechst 33258, that binds to fragmented DNA. The PC-3 cells were observed under a fluorescent microscope.

Data set [5] concerns PC-3 cells. Briefly: Apoptosis by TUNEL assay and flow cytometry. The format is cell-based, human. Here is the method:
PC-3 cells were incubated with 0.05 μg/ml oleandrin for 24 hours, irradiated at 2 Gy, or both. The control cells were untreated. The medium containing oleandrin was removed, fresh medium was added, and 24 hours later the apoptotic index was determined.
Apoptosis was determined by staining and flow cytometry analysis. The terminal deoxynucleotidyltransferase (“TdT”) dUTP nick end labeling (“TUNEL”) assay to identify the DNA fragmentation (APO-DIRECT kit, Pharmingen, San Diego, Calif.) was performed according to the manufacturer's instructions. Briefly, cells (2×10^6) were fixed in 1% paraformaldehyde and washed in PBS. Cells were suspended in 70% ethanol and stored at −20° C. until use. Re-suspended cells were stained in a solution containing TdT and FITC-dUTP and incubated overnight at room temperature in the dark. They were then rinsed and re-suspended in 0.5 ml propidium iodide/RNase A solution and analyzed by flow cytometry.
A general note: A flow cytometer gives signals particle by particle.

A further data set has as its system NF-kB. Conditions: cited from earlier work.
The subject of data set [6] is A549 human lung adenocarcinoma cells. Conditions: cited from earlier work.
The test system of data set [7] is normal human lung fibroblasts. Conditions: cited from earlier work.
Data set [8] has as its system human tumor cells including squamous cell carcinoma and melanoma. Conditions: squamous cell carcinoma and melanoma among types; cited from earlier work.

Take ZDEVD-FMK [Z-DEVD-FMK]: in the data set on PC-3 cells [1], the “Survival of cells (%) following radiation of 2 Gy” value was found to be 77.8 ± 3.2%, the “Survival of cells (%) following radiation of 6 Gy” value came out at 8.6 ± 2.1% and the “Survival of cells (%) following radiation of O Gy” value is 97.4 ± 1.7%. Also, in the data set on PC-3 cells [1] (ZDEVD-FMK 100 μM with oleandrin 0.05 μg/ml), the “effect on oleandrin-induced enhancement of radiation response” value is given as “abolished”.
Consider `CO[C@H]1C[C@H](O[C@H]2CC[C@@]3(C)[C@H](CC[C@@H]4[C@@H]3CC[C@]3(C)[C@@H](C5=CC(=O)OC5)[C@@H](OC(C)=O)C[C@]43O)C2)O[C@@H](C)[C@@H]1O` [Oleandrin, oleandrin], for which, in the data set with PC-3 cells [2] (oleandrin 0.025 μg/ml), the cytotoxicity by itself entry was “non-cytotoxic” and the influence on radiosensitization result is given as “no significant influence”. Further, the “enhancement factor at the cell survival fraction of 0.1” value in the data set on PC-3 cells [2] (oleandrin 0.05 μg/ml 24 hours, then 2, 4 or 6 Gy γ-rays) came out at 1.32. This compound also came in with a plating efficiency in the data set with PC-3 cells [2] (oleandrin 0.05 μg/ml for 24 hours, by itself (no radiation), control value 95%) of 21%. For the same compound, the induction of apoptosis entry in the data set on human tumor cell lines is listed as “induces apoptosis”. Moreover, in the data set on caspase-3 (0.05 μg/ml oleandrin alone, 24 hours, assayed 24 hours after treatment), the “activation of caspase-3” value is reported as “effective”. The “level of caspase-3 activation” value with caspase-3 (0.05 μg/ml oleandrin combined with 5 Gy) is recorded as “higher”. For the same compound, the induction of apoptosis result with murine tumor cell lines is listed as “not in murine tumor cell lines”. Further, the “radiosensitizing effect versus duration of exposure” value in the data set with PC-3 cells [3] (0.05 μg/ml oleandrin 1-24 hours, 3 Gy) was “increased as the duration of exposure to oleandrin increased up to 24 hours”. The cell survival with PC-3 cells [3] (3 Gy radiation plus 0.05 μg/ml oleandrin, exposure 1 hour, 3 Gy only 50%) came to 30%. In the data set on PC-3 cells [1], the “Survival of cells (%) following radiation of 2 Gy” value was 55.5 ± 1.9%, the “Survival of cells (%) following radiation of 6 Gy” value is 3.1 ± 0.8% and the “Survival of cells (%) following radiation of O Gy” value is 88.9 ± 2.9%. Also, in the data set on PC-3 cells [4], the “apoptotic cells observed (Hoechst 33258)” value is listed as “More apoptotic cells”. Besides, in the data set on PC-3 cells [5] (0.05 μg/ml oleandrin 24 hours alone, measured 24 hours later, control 2.1±0.4), the “percentage of apoptotic cells” value was 63.5±6.1%. Moreover, in the data set with PC-3 cells [5] (0.05 μg/ml oleandrin 24 hours plus 2 Gy, 2 Gy alone 8.2±3.4%), the “percentage of apoptotic cells” value was 85.8±5.3%. Further, the “combination effect on apoptosis versus individual treatments” value with PC-3 cells [5] (oleandrin 0.05 μg/ml plus 2 Gy) is recorded as “more than the additive effects”. For the same compound, the “activation of NF-kB” value in the data set on NF-kB is reported as “inhibits activation”.
Turning to `C[C@@H]1O[C@@H](O[C@H]2C[C@@H](O)[C@]3(CO)[C@H]4[C@H](O)C[C@]5(C)[C@@H](C6=CC(=O)OC6)CC[C@]5(O)[C@@H]4CC[C@]3(O)C2)[C@H](O)[C@H](O)[C@H]1O` [Ouabain, ouabain], in data set [6], the in vitro radiosensitivity entry is reported as “enhance in vitro radiosensitivity”. Further, the modification of radioresponse result in [7] is reported as “ineffective”. In data set [8], the radiosensitization entry is listed as “radiosensitize”.

Source of the values: patent US20050112059A1, “Enhancement of radiotherapy by an exogenous cardiac glycoside” (Phoenix Biotechnology, Inc., priority 2003, published 2005).
